Results: US20160214956A1, “NOVEL SOLUBLE GUANYLATE CYCLASE ACTIVATORS AND THEIR USE” (GLAXOSMITHKLINE INTELLECTUAL PROPERTY DEVELOPMENT LIMITED, priority 2013, published 2016)
Where a chain is given by its changes, count along the chain named. Structures can show the parent of a compound that is named as a salt.

Legend:
human sGC = target: T1, human sGC (Homo sapiens, UniProt Q02153); assay: sGC enzyme assay, fluorescence polarisation of labelled cGMP; format: biochemical; conditions: human sGC 1 nM, FP assay; concentration able to increase by 5-fold basal cGMP
T1 sequence (Q02153 1-619): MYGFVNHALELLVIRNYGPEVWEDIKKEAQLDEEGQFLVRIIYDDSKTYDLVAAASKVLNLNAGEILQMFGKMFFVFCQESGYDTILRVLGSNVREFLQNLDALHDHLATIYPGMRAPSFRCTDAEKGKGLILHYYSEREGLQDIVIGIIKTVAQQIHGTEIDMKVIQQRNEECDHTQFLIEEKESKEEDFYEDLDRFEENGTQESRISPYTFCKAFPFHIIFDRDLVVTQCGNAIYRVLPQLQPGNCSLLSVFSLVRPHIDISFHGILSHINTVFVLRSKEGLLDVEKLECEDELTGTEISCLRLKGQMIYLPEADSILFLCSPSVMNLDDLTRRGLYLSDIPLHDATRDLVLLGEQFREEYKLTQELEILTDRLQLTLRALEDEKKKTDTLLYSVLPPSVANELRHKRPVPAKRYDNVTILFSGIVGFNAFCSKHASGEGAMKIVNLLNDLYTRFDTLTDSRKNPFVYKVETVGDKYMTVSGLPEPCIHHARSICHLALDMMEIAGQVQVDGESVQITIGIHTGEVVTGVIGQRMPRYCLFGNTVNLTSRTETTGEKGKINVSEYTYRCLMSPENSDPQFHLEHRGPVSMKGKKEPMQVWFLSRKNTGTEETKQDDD
T1 sequence (Q02108 1-690 partner): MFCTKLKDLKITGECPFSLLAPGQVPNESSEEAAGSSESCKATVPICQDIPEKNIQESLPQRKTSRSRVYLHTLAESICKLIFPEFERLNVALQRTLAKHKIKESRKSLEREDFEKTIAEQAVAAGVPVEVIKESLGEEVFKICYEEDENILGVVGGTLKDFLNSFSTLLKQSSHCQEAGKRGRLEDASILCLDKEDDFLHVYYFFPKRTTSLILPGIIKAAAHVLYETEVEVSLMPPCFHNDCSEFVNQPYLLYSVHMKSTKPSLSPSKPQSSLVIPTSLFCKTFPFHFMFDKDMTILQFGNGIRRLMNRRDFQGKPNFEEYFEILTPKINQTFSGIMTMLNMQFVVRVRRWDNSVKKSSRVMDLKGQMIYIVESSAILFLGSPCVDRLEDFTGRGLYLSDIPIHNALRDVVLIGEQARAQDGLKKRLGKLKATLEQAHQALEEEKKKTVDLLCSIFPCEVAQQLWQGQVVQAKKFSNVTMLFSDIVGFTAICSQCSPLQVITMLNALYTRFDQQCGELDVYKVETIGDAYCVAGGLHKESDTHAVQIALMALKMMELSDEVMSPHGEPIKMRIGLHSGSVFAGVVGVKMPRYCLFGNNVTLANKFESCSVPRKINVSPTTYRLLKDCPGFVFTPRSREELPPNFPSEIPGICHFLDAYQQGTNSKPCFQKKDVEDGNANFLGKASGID
Procedure: The activity of soluble guanylate cyclase (sGC) was tested in an assay based on measuring the fluorescent polarisation (FP) signal of fluorescently labelled cGMP. FP increased on interaction with an anti-cGMP antibody as the motility of the molecule was reduced. Newly produced cGMP displaced the interaction giving rise to a decrease in polarisation and FP signal which was equated to enzyme activity. Compounds were incubated with human sGC, anti-cGMP antibody, the GTP substrate and fluorescently labelled cGMP. After a period of one hour the assay was stopped with the addition of EDTA and after a further hour the assay was read.
Human sGC was thawed and resuspended in assay buffer (100 mM TRIS, 10 mM MgCl2, 0.2 mM Tween 20, pH7.4, containing 1:100 dilution of sheep anti-cGMP) to give final concentration of 1 nM in the well. A substrate solution was prepared containing GTP and 8-fluo-cGMP in de-ionized water to a final concentration of 25 μM and 50 nM respectively. Assay plates containing 5 μL of various test compounds and of a standard agonist (50 μM-50 nM) in 1% DMSO as 6 point, four fold dilutions across a 96 well plate were used in the assay. The plate also contained 6 wells of DMSO (1%) to produce high control and a cGMP standard curve (14 nM to 10 μM) to convert FP data to cGMP concentration. 25 μL of enzyme mix and 20 μl of substrate mix described above were added to each well of the plate. Samples were mixed on an orbital shaker and then incubated at room temperature for 1 hour. After this incubation period 5 μl of 0.5M EDTA was added to all wells and the plates were incubated for a further hour at room temperature prior to reading the FP signal in an appropriate reader. For data handling FP data were converted to cGMP concentrations and then fitted using ActivityBase software. The activity of a test compound was determined as the pEC500 value which is the concentration able to increase by 5-fold basal cGMP.

[1] = target: T2, soluble guanylate cyclase (sGC) (Rattus norvegicus, UniProt P20595); assay: Cellular assay, VASP phosphorylation in rat aortic smooth muscle cells with ODQ; format: cell-based; conditions: phospho-VASP signal, primary rat aortic smooth muscle cells, 10 μM ODQ, 30 min incubation; 50% vs. Bmax; read-out: Cell assay pEC50 (converted)
T2 construct: endogenous in cells; host or cells: primary rat aortic smooth muscle cells
T2 sequence (P20595 1-619): T1 sequence (Q02153 1-619) with N171S, E205D, N247K, T299A, K615N, D618E, D619N
T2 sequence (P19686 1-690 partner): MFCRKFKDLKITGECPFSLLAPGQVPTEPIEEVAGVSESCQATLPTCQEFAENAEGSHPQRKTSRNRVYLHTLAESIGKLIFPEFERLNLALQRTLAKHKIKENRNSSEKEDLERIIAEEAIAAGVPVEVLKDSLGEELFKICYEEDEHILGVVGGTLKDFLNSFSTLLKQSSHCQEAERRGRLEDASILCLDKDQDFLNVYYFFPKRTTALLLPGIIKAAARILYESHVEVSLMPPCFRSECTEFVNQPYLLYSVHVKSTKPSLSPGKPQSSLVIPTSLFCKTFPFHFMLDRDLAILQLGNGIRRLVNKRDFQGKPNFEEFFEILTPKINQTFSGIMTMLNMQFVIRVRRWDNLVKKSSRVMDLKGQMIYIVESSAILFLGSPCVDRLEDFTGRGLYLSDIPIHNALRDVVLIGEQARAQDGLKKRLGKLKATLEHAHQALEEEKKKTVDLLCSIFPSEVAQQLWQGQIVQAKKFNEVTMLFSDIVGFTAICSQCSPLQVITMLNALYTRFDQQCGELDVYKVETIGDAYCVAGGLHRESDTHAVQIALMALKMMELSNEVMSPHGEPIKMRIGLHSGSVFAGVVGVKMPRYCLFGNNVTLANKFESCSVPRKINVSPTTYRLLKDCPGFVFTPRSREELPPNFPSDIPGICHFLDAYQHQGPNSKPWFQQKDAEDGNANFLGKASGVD
Procedure: The activity of soluble guanylate cyclase (sGC) was tested in an assay based on measuring phosphorylation of the protein kinase G (PKG) substrate vasodilator-stimulated phosphoprotein (VASP) in rat aortic smooth muscle cells. […] Dimethylsulfoxide (DMSO) vehicle and varying concentrations of the compound to be tested were then added. Following a 30 min incubation at 37° C., media was aspirated and the cells were rinsed with phosphate-buffered saline (PBS) and fixed with 4% formaldehyde in PBS by incubating at room temperature for 20 min. Cells were then washed with PBS and permeabilized for 10 min using 0.1% triton X-100 in PBS. Following PBS rinsing, the cells were blocked for 90 min at room temperature with blocking buffer. The buffer was aspirated and the cells were treated overnight at 4° C. with primary antibody (pSer239-VASP, rabbit polyclonal Ab) diluted 1:500 in blocking buffer. Following three washes with 0.05% Tween 20, the cells were treated for 1 h at room temperature with a fluorescent labeled secondary antibody (IRDye® 800CW Donkey Anti-Rabbit IgG) diluted 1:2500 in blocking buffer with 0.05% Tween 20. Following two washes with PBS, infrared fluorescence was measured using an Odyssey Infrared Imaging System. The activity of a test compound was determined as the pEC50 value which is the concentration able to increase by 50% (vs. Bmax) the phospho-VASP fluorescent signal. Front. Pharmacol., 5 Jul. 2012|doi: 10.3389/fphar.2012.00128, Volume 3 July, 2012, Article number 128.

Row | Compound | sGC pEC500 (human sGC) | EC50 [1] [nM]
1 | N#CCCCOc1ccc(COc2ccccc2-c2cccc(-n3ncc(C(=O)O)c3C(F)(F)F)n2)cc1 [Example 8, 1-(6-(2-((4-(3-cyanopropoxy)benzyl)oxy)phenyl)pyridin-2-yl)-5-(trifluoromethyl)-1H-pyrazole-4-carboxylic acid] | 7.28 | 
2 | Cc1cc(OCCCn2cncn2)ccc1CCc1ccc(F)cc1-c1cccc(-n2ncc(C(=O)O)c2C(F)(F)F)n1 [Example 17, 1-(6-(2-(4-(3-(1H-1,2,4-triazol-1-yl)propoxy)-2-methylphenethyl)-5-fluorophenyl)pyridin-2-yl)-5-(trifluoromethyl)-1H-pyrazole-4-carboxylic acid, sodium salt] |  | 20
3 | Cc1cc(OCCCC(F)(F)F)ccc1CCc1ccc(F)cc1-c1cccc(-n2ncc(C(=O)O)c2C(F)(F)F)n1 [Example 13, 1-(6-(5-Fluoro-2-(2-methyl-4-(4,4,4-trifluorobutoxy)phenethyl)phenyl)pyridin-2-yl)-5-(trifluoromethyl)-1H-pyrazole-4-carboxylic acid] |  | 1.26
4 | Cc1cc(OCCCC(F)(F)F)ccc1CCc1ccccc1-c1cccc(-n2ncc(C(=O)OC(C)C)c2C(F)(F)F)n1 [Example 22, Isopropyl 1-(6-(2-(2-methyl-4-(4,4,4-trifluorobutoxy)phenethyl)phenyl)pyridin-2-yl)-5-(trifluoromethyl)-1H-pyrazole-4-carboxylate] |  | 1260
5 | Cc1cc(OCCCn2ccc(C#N)n2)ccc1CCc1ccc(F)cc1-c1cccc(-n2ncc(C(=O)O)c2C(F)(F)F)n1 [Example 18, 1-(6-(2-(4-(3-(3-cyano-1H-pyrazol-1-yl)propoxy)-2-methylphenethyl)-5-fluorophenyl)pyridin-2-yl)-5-(trifluoromethyl)-1H-pyrazole-4-carboxylic acid, sodium salt] |  | 7.94
6 | Cc1cc(OCCCn2cccn2)ccc1CCc1ccc(F)cc1-c1cccc(-n2ncc(C(=O)O)c2C(F)(F)F)n1 [Example 14, 1-(6-(2-(4-(3-(1H-pyrazol-1-yl)propoxy)-2-methylphenethyl)-5-fluorophenyl)pyridin-2-yl)-5-(trifluoromethyl)-1H-pyrazole-4-carboxylic acid] |  | 1.58
7 | CCOC(=O)c1cnn(-c2cccc(-c3ccccc3CCc3ccc(OCCCC(F)(F)F)cc3C)n2)c1C(F)(F)F [Example 19, Ethyl 1-(6-(2-(2-methyl-4-(4,4,4-trifluorobutoxy)phenethyl)phenyl)pyridin-2-yl)-5-(trifluoromethyl)-1H-pyrazole-4-carboxylate] |  | 251
8 | COc1cnn(CCCOc2ccc(CCc3ccc(F)cc3-c3cccc(-n4ncc(C(=O)O)c4C(F)(F)F)n3)c(C)c2)c1 [Example 16, 1-(6-(5-Fluoro-2-(4-(3-(4-methoxy-1H-pyrazol-1-yl)propoxy)-2-methylphenethyl)phenyl)pyridin-2-yl)-5-(trifluoromethyl)-1H-pyrazole-4-carboxylic acid, sodium salt] |  | 6.31
9 | Cc1cc(OCCCn2cc(C#N)cn2)ccc1CCc1ccc(F)cc1-c1cccc(-n2ncc(C(=O)O)c2C(F)(F)F)n1 [Example 15, 1-(6-(2-(4-(3-(4-cyano-1H-pyrazol-1-yl)propoxy)-2-methylphenethyl)-5-fluorophenyl)pyridin-2-yl)-5-(trifluoromethyl)-1H-pyrazole-4-carboxylic acid, sodium salt] |  | 39.8
10 | Cc1cc(OCCCC(F)(F)F)ccc1CCc1ccccc1-c1cccc(-n2ncc(C(=O)O)c2C(F)(F)F)n1 [Example 21, 1-(6-(2-(2-methyl-4-(4,4,4-trifluorobutoxy)phenethyl)phenyl)pyridin-2-yl)-5-(trifluoromethyl)-1H-pyrazole-4-carboxylic acid, sodium salt] |  | 7.94
